# Assay results from patent US8937167B2 (Washington University, priority 2009, dated 2015).
# pKd: −log10 of the molar value. Entries after “also recorded” stand apart in the source; their conditions may differ. Read-outs that look alike come from different tables or passages of the source.
# Experiments:
# FimH lectin domain = molecular target: T1, FimH lectin domain (Escherichia coli, UniProt P08191); assay: biochemical; type: binding, E. coli
# T1 construct: made by biotinylating FimH lectin domain^25 at a 1:1 molar ratio with NHS-PEO4-Biotin
# Procedure: Samples or buffer (200 μL per well) were dispensed into 96-well microtiter plates (Greiner Bio-One, Monroe N.C.) and maintained at 30° C. with 1000 RPM shaking. Pre-manufactured pins for individual assays were made by biotinylating FimH lectin domain^25 at a 1:1 molar ratio with NHS-PEO4-Biotin (Thermo Fisher, Rockford Ill.), diluting it to 50 μg/ml in 20 mM HEPES pH 7.5, 150 mM NaCl (HBS), immobilizing it on high-binding streptavidin-coated biosensor tips (Super Streptavidin, ForteBio, Inc., Menlo Park, Calif.) for 10 minutes at 30° C., blocking the pins with 10 μg/ml biocytin for 2 minutes, washing in HBS for 1 hour, and rinsing in 15% sucrose in HBS. Pins were then air dried for 30 minutes and stored in their original packaging with a dessicant packet. Assays were performed by re-wetting premade pins with HBS for 15 minutes, then storing them in fresh HBS until use. […] Each experimental pin was referenced to a biocytin-blocked pin to control for instrument drift and a second biocytin-blocked pin that was passed through a duplicate experiment in the same 96-well plate to control for nonspecific binding of the compound to the pin. Kinetics data and affinity constants were generated automatically by the global fitting protocol in ForteBio Data Analysis version 6.3.
# FimH = FimH (Escherichia coli, UniProt Q1R2J4); settings: Examples 30-36 numbering;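 further: hemagglutination inhibition of guinea pig erythrocytes agglutinated by type 1 piliated uropathogenic E. coli via FimH mannose binding, quantified through serial dilutions of compound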
# UTI89 = assay: Enumeration of bladder IBCs by LacZ staining in infected mice; type: in vivo, E. coli (UPEC); host C3H/HeN mouse; settings: UTI89 pre-incubated with mannoside (as little as 10 μM); 6 hpi
# Procedure: After invasion, UPEC are able to rapidly replicate to form IBCs, thus dramatically expanding in numbers. After maturation of the IBC, bacteria are able to disperse from the biomass and spread to neighboring cells to expand the buildup in bacterial numbers via next generation IBC. The ability of mannosides to block IBC formation was evaluated based on LacZ staining of whole mount bladders, a protocol developed to enumerate IBCs. Whole bladder titers were also determined by quantifying colony forming units (CFUs) at 6 hours post-infection and later time points as test compounds were further developed.
# (§1) Enumeration of bladder IBCs. For bacterial pretreatment experiments, mannoside was added to the bacterial suspension and incubated for 20 min. For animal pretreatment experiments, mannoside ZFH-2056 was administered either IP (5 mg/kg) or orally (100 mg/kg) 30 min prior to inoculation with UTI89. To accurately count the number of IBCs, mice were sacrificed 6 hpi and bladders were aseptically removed, bisected, splayed on silicone plates and fixed in 2% paraformaldehyde (v/v). IBCs, readily discernable as punctate violet spots, were quantified by LacZ staining of whole bladders.
# as §1, with “For” for “Enumeration of bladder IBCs. For bacterial pretreatment experiments, mannoside was added to the bacterial suspension and incubated for 20 min. For”
# PBC-1 = assay: Mouse bladder infection with TMP-SMZ resistant strain, with or without TMP-SMZ in drinking water; type: in vivo, E. coli (UPEC); host C3H/HeN mouse; settings: 6 hpi, mannoside IP 30 min prior and/or TMP-SMZ 3 days in drinking water
# [1] = Mouse urine pharmacokinetics of mannosides (LC-MS); settings: in vivo
# Procedure: Pharmacokinetic (PK) studies with ZFH-2056 evaluated in vivo dosing conditions after intraperitoneal (IP) injection or oral (PO) gavage. ZFH-2056 was dosed IP and compound levels in the urine were evaluated at several timepoints by HPLC using mass spectrometry (MS) detection. […] Since oral dosing is the desired route of delivery, we next evaluated the concentration of drug after 100 mg/kg PO of ZFH-2056.
# (§2) Pharamacokinetic analysis. For intraperitoneal dosing, 50 μl of a 2 mg/ml (5 mg/kg) or 4 mg/ml (10 mg/kg) solution of ZFH-2056 in PBS was injected into the peritoneal cavity of the mouse. For oral dosing, 100 μl of a 20 mg/ml (100 mg/kg) solution of ZFH-2056 in 8% DMSO was inoculated with a gavage needle into the mouse stomach. Urine was collected at 30 min, 1, 2, 3, 4, 6, and 8 h post-treatment. An equal volume of 10 μM internal standard (ZFH-2050) was added to the urine. Mannosides were extracted from the urine by loading on C18 columns (100 mg, Waters), washing with 30% methanol, and eluting with 60% methanol. […] Absolute quantification was achieved by comparison to a calibration curve.
# as §2, with “For” for “Pharamacokinetic analysis. For intraperitoneal dosing, 50 μl of a 2 mg/ml (5 mg/kg) or 4 mg/ml (10 mg/kg) solution of ZFH-2056 in PBS was injected into the peritoneal cavity of the mouse. For”
SMILES,"Kd, qualitative (FimH lectin domain)","pKd (FimH lectin domain; Table 20, read-out: Octet Kd)",HAI Titer EC>90 (FimH; Table 17),HAI Titer EC>90 (FimH; Table 20),IBC formation (UTI89),bladder bacterial CFUs (PBC-1),drug cleared to the urine intact / unchanged [1],hydrolysis products (D-mannose and phenol) in urine [1],level in urine ([1]; ip)
"COC(=O)c1cccc(-c2ccc(O[C@H]3O[C@H](CO)[C@@H](O)[C@H](O)[C@@H]3O)cc2)c1 [Compound 1, phenyl mannoside, reference compound]",picomolar range,10.10,1.00 µM,1.000 µM,–,–,–,–,–
CNC(=O)c1cc(C(=O)NC)cc(-c2ccc(O[C@H]3O[C@H](CO)[C@@H](O)[C@H](O)[C@@H]3O)cc2)c1 [ZFH-2056],–,–,–,–,most significant reduction in IBCs; also recorded: reduced IBC formation,significant drop in bacterial load,> 95%,< 5%,≤ 0.74 µM
